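Step 1: Grow cells in 96-well plates. Step 2: Expose to compound for 48 hours at 5 concentrations. Step 3: Interpolate endpoints linearly; if unreached, use highest concentration. GI50: concentration for 50% inhibition of growth. Definition used: TGI = concentration required for complete inhibition of growth.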
Tests used:
Assay in all cases: NCI tumour cell line growth inhibition, 48 h
SF-268 CNS = system: SF-268 CNS
UACC-257 melanoma = system: UACC-257 melanoma
OVCAR-3 ovarian = system: OVCAR-3 ovarian
SF-539 CNS = system: SF-539 CNS
HCT-116 colon = system: HCT-116 colon
M14 melanoma = system: M14 melanoma
HT29 colon = system: HT29 colon
HCC-2998 colon = system: HCC-2998 colon
SK-OV-3 ovarian = system: SK-OV-3 ovarian
A549 NSCLC = system: A549 NSCLC
SF-295 CNS = system: SF-295 CNS
MALME-3M melanoma = system: MALME-3M melanoma
HOP-18 NSCLC = system: HOP-18 NSCLC
SK-MEL-5 melanoma = system: SK-MEL-5 melanoma
XF 498 CNS = system: XF 498 CNS
RXF-631 renal = system: RXF-631 renal
CCRF-CEM leukemia = system: CCRF-CEM leukemia
SR leukemia = system: SR leukemia
NCI-H460 lung = system: NCI-H460 lung
SNB-75 CNS = system: SNB-75 CNS
NCI-H522 lung = system: NCI-H522 lung
TK-10 renal = system: TK-10 renal
OVCAR-4 ovarian = system: OVCAR-4 ovarian
RPMI-8226 leukemia = system: RPMI-8226 leukemia
SK-MEL-28 melanoma = system: SK-MEL-28 melanoma
HOP-92 NSCLC = system: HOP-92 NSCLC
A498 renal = system: A498 renal
LOX IMVI melanoma = system: LOX IMVI melanoma
RXF 393 renal = system: RXF 393 renal
HOP-62 NSCLC = system: HOP-62 NSCLC
SNB-19 CNS = system: SNB-19 CNS
SN12C renal = system: SN12C renal
DMS 273 small cell lung = system: DMS 273 small cell lung
KM12 colon = system: KM12 colon
DLD-1 colon = system: DLD-1 colon
NCI-H23 lung = system: NCI-H23 lung
KM20L2 colon = system: KM20L2 colon
K-562 leukemia = system: K-562 leukemia
EKVX NSCLC = system: EKVX NSCLC
OVCAR-5 ovarian = system: OVCAR-5 ovarian
M19-MEL melanoma = system: M19-MEL melanoma
ACHN renal = system: ACHN renal
OVCAR-8 ovarian = system: OVCAR-8 ovarian
U251 CNS = system: U251 CNS
COLO 205 colon = system: COLO 205 colon
LXFL 529 NSCLC = system: LXFL 529 NSCLC
UACC-62 melanoma = system: UACC-62 melanoma
SK-MEL-2 melanoma = system: SK-MEL-2 melanoma
SW-620 colon = system: SW-620 colon
786-0 renal = system: 786-0 renal
CAKI-1 renal = system: CAKI-1 renal
HCT-15 colon = system: HCT-15 colon
UO-31 renal = system: UO-31 renal
IGROV1 ovarian = system: IGROV1 ovarian
SNB-78 CNS = system: SNB-78 CNS
DMS 114 small cell lung = system: DMS 114 small cell lung
HL-60(TB) leukemia = system: HL-60(TB) leukemia
NCI-H226 lung = system: NCI-H226 lung
MOLT-4 leukemia = system: MOLT-4 leukemia
MDA-MB-231 breast = system: MDA-MB-231 breast
NCI/ADR-RES ovarian = system: NCI/ADR-RES ovarian
BT-549 breast = system: BT-549 breast
MCF7 breast = system: MCF7 breast
DU-145 prostate = system: DU-145 prostate
T-47D breast = system: T-47D breast
HS 578T breast = system: HS 578T breast
PC-3 prostate = system: PC-3 prostate
MDA-MB-435 = system: MDA-MB-435
P388/ADR leukemia = system: P388/ADR leukemia
SN12K1 renal = system: SN12K1 renal
P388 leukemia = system: P388 leukemia

CCCCCCCCCCCCC(CC)CCCCC(=O)O (stereo unspecified)
TGI (SF-268 CNS): > 100 µM
TGI (UACC-257 melanoma): > 100 µM
TGI (OVCAR-3 ovarian): > 100 µM
TGI (SF-539 CNS): > 59.2 µM
TGI (HCT-116 colon): > 100 µM
TGI (M14 melanoma): > 100 µM
TGI (HT29 colon): > 100 µM
TGI (HCC-2998 colon): > 100 µM
TGI (SK-OV-3 ovarian): > 100 µM
TGI (A549 NSCLC): > 100 µM
TGI (SF-295 CNS): > 100 µM
TGI (MALME-3M melanoma): > 100 µM
TGI (HOP-18 NSCLC): > 100 µM
TGI (SK-MEL-5 melanoma): > 100 µM
TGI (XF 498 CNS): > 100 µM
TGI (RXF-631 renal): > 100 µM
TGI (CCRF-CEM leukemia): 67.6 µM
TGI (SR leukemia): > 100 µM
TGI (NCI-H460 lung): > 100 µM
TGI (SNB-75 CNS): > 100 µM
TGI (NCI-H522 lung): > 100 µM
TGI (TK-10 renal): > 100 µM
TGI (OVCAR-4 ovarian): > 100 µM
TGI (RPMI-8226 leukemia): > 100 µM
TGI (SK-MEL-28 melanoma): > 100 µM
TGI (HOP-92 NSCLC): > 100 µM
TGI (A498 renal): > 100 µM
TGI (LOX IMVI melanoma): > 100 µM
TGI (RXF 393 renal): > 86.8 µM
TGI (HOP-62 NSCLC): > 100 µM
TGI (SNB-19 CNS): > 100 µM
TGI (SN12C renal): > 100 µM
TGI (DMS 273 small cell lung): > 100 µM
TGI (KM12 colon): > 100 µM
TGI (DLD-1 colon): > 100 µM
TGI (NCI-H23 lung): > 100 µM
TGI (KM20L2 colon): > 100 µM
TGI (K-562 leukemia): > 100 µM
TGI (EKVX NSCLC): > 100 µM
TGI (OVCAR-5 ovarian): > 100 µM
TGI (M19-MEL melanoma): > 100 µM
TGI (ACHN renal): > 100 µM
TGI (OVCAR-8 ovarian): > 100 µM
TGI (U251 CNS): > 67.8 µM
TGI (COLO 205 colon): > 100 µM
TGI (LXFL 529 NSCLC): > 100 µM
TGI (UACC-62 melanoma): > 100 µM
TGI (SK-MEL-2 melanoma): > 100 µM
TGI (SW-620 colon): > 100 µM
TGI (786-0 renal): > 100 µM
TGI (CAKI-1 renal): > 100 µM
TGI (HCT-15 colon): > 100 µM
TGI (UO-31 renal): > 100 µM
TGI (IGROV1 ovarian): > 100 µM
TGI (SNB-78 CNS): > 100 µM
TGI (DMS 114 small cell lung): > 100 µM
TGI (HL-60(TB) leukemia): > 90.4 µM
TGI (NCI-H226 lung): > 100 µM
TGI (MOLT-4 leukemia): 69.7 µM

Oc1ccc2c(c1)OCC1(O)Cc3cc(O)c(O)cc3C21 (stereo unspecified)
TGI (SF-268 CNS): > 68.2 µM
TGI (UACC-257 melanoma): 34.4 µM
TGI (OVCAR-3 ovarian): 30 µM
TGI (SF-539 CNS): 36.8 µM
TGI (HCT-116 colon): 42.4 µM
TGI (M14 melanoma): 36.2 µM
GI50 (MDA-MB-231 breast): 13 µM
TGI (MDA-MB-231 breast): 26 µM
TGI (HT29 colon): 46.5 µM
TGI (HCC-2998 colon): 36 µM
GI50 (NCI/ADR-RES ovarian): 29.6 µM
TGI (NCI/ADR-RES ovarian): 97.9 µM
TGI (SK-OV-3 ovarian): > 79.5 µM
GI50 (BT-549 breast): 14.8 µM
TGI (BT-549 breast): 28 µM
TGI (A549 NSCLC): > 74.6 µM
TGI (SF-295 CNS): > 68.3 µM
TGI (MALME-3M melanoma): 32.4 µM
TGI (HOP-18 NSCLC): 32.3 µM
TGI (SK-MEL-5 melanoma): 34.2 µM
GI50 (MCF7 breast): 18.4 µM
TGI (MCF7 breast): 36 µM
TGI (XF 498 CNS): 28.8 µM
TGI (RXF-631 renal): > 77.3 µM
TGI (CCRF-CEM leukemia): 82.8 µM
TGI (SR leukemia): 99.3 µM
TGI (NCI-H460 lung): 37.2 µM
TGI (SNB-75 CNS): 67.8 µM
TGI (NCI-H522 lung): 46.7 µM
GI50 (DU-145 prostate): 10.7 µM
TGI (DU-145 prostate): 22.5 µM
TGI (TK-10 renal): 31.2 µM
GI50 (T-47D breast): 19.6 µM
TGI (T-47D breast): 54.4 µM
TGI (OVCAR-4 ovarian): 35.3 µM
GI50 (HS 578T breast): 20.4 µM
TGI (HS 578T breast): 46.9 µM
GI50 (PC-3 prostate): 18.1 µM
TGI (PC-3 prostate): 39.4 µM
TGI (RPMI-8226 leukemia): 85.1 µM
TGI (SK-MEL-28 melanoma): 32.2 µM
TGI (HOP-92 NSCLC): 37.6 µM
TGI (A498 renal): 39 µM
TGI (LOX IMVI melanoma): 37.2 µM
TGI (RXF 393 renal): 29.7 µM
TGI (HOP-62 NSCLC): > 73.6 µM
TGI (SNB-19 CNS): 73 µM
TGI (SN12C renal): 51.1 µM
TGI (DMS 273 small cell lung): > 100 µM
TGI (KM12 colon): 69.2 µM
TGI (DLD-1 colon): 33.9 µM
TGI (NCI-H23 lung): 33.4 µM
GI50 (MDA-MB-435): 14.8 µM
TGI (MDA-MB-435): 28.1 µM
TGI (KM20L2 colon): > 63 µM
TGI (K-562 leukemia): > 82.6 µM
TGI (EKVX NSCLC): 45.9 µM
TGI (OVCAR-5 ovarian): 59.7 µM
TGI (M19-MEL melanoma): > 86 µM
TGI (ACHN renal): 32.7 µM
TGI (OVCAR-8 ovarian): 44.2 µM
TGI (U251 CNS): 39.9 µM
TGI (COLO 205 colon): 45.4 µM
TGI (LXFL 529 NSCLC): 34 µM
TGI (UACC-62 melanoma): 41.9 µM
TGI (SK-MEL-2 melanoma): 62.2 µM
TGI (SW-620 colon): 40.5 µM
TGI (786-0 renal): 34.9 µM
TGI (CAKI-1 renal): 32.8 µM
TGI (HCT-15 colon): 44.2 µM
TGI (UO-31 renal): > 100 µM
TGI (IGROV1 ovarian): > 73.6 µM
TGI (SNB-78 CNS): 20 µM
TGI (DMS 114 small cell lung): 73.5 µM
TGI (HL-60(TB) leukemia): 78.3 µM
TGI (NCI-H226 lung): > 65.2 µM
TGI (MOLT-4 leukemia): 72.9 µM

CCCCC1(C2c3ccccc3Oc3ccccc32)C(=O)N(c2ccccc2)N(c2ccccc2)C1=O
TGI (SF-268 CNS): > 100 µM
TGI (UACC-257 melanoma): 99 µM
TGI (OVCAR-3 ovarian): > 100 µM
TGI (SF-539 CNS): > 100 µM
TGI (HCT-116 colon): > 100 µM
TGI (HT29 colon): > 100 µM
TGI (HCC-2998 colon): > 94.5 µM
TGI (NCI/ADR-RES ovarian): > 100 µM
TGI (SK-OV-3 ovarian): > 100 µM
TGI (A549 NSCLC): > 100 µM
TGI (SF-295 CNS): > 100 µM
TGI (MALME-3M melanoma): > 100 µM
TGI (HOP-18 NSCLC): > 100 µM
TGI (SK-MEL-5 melanoma): > 100 µM
TGI (MCF7 breast): > 100 µM
TGI (XF 498 CNS): > 100 µM
TGI (CCRF-CEM leukemia): > 100 µM
TGI (NCI-H460 lung): > 100 µM
TGI (SNB-75 CNS): > 100 µM
TGI (NCI-H522 lung): 13.1 µM
TGI (OVCAR-4 ovarian): > 100 µM
TGI (RPMI-8226 leukemia): > 100 µM
TGI (SK-MEL-28 melanoma): > 100 µM
TGI (HOP-92 NSCLC): > 100 µM
TGI (A498 renal): > 100 µM
TGI (LOX IMVI melanoma): > 100 µM
TGI (RXF 393 renal): > 100 µM
TGI (HOP-62 NSCLC): > 100 µM
TGI (SNB-19 CNS): > 100 µM
TGI (SN12C renal): > 100 µM
TGI (DMS 273 small cell lung): > 100 µM
TGI (KM12 colon): > 100 µM
TGI (DLD-1 colon): > 100 µM
TGI (NCI-H23 lung): > 100 µM
TGI (P388/ADR leukemia): > 100 µM
TGI (SN12K1 renal): > 100 µM
TGI (KM20L2 colon): > 100 µM
TGI (K-562 leukemia): > 100 µM
TGI (EKVX NSCLC): > 100 µM
TGI (OVCAR-5 ovarian): > 100 µM
TGI (M19-MEL melanoma): > 100 µM
TGI (OVCAR-8 ovarian): > 100 µM
TGI (U251 CNS): > 100 µM
TGI (COLO 205 colon): > 100 µM
TGI (UACC-62 melanoma): > 100 µM
TGI (P388 leukemia): 45.2 µM
TGI (SK-MEL-2 melanoma): > 100 µM
TGI (SW-620 colon): > 100 µM
TGI (CAKI-1 renal): > 29.6 µM
TGI (HCT-15 colon): > 100 µM
TGI (UO-31 renal): > 100 µM
TGI (IGROV1 ovarian): > 100 µM
TGI (SNB-78 CNS): > 88.5 µM
TGI (HL-60(TB) leukemia): > 100 µM
TGI (NCI-H226 lung): > 100 µM

— PubChem BioAssay (NCI)
